Experiment: Solubility of HA

- Concentration of HA solutions that can be prepared: ≥ 20 mg/mL
Substance: hyaluronan [HA]

Reference: patent US9012395B2, “Treatment of extracellular matrix to reduce inflammation” (The Cleveland Clinic Foundation, priority 2011, dated 2015)
